The text below walks through data of ChEMBL document CHEMBL1155901, “Sialyl alpha(2-->3) lactose clusters using carbosilane dendrimer core scaffolds as influenza hemagglutinin blockers” (Bioorg Med Chem Lett, 2008).

Calls of active or inactive are those of the source. The calls are words filed in the database; no cut-off is given here.

Common to all, as to assay type: functional, organism-based
Assay [1] concerns Influenza A virus H3N2. The assay is described as follows: Inhibition of hemagglutinination in human influenza virus A/Aich/2/68 (H3N2) infected in bovine erythrocytes. The conditions noted are these: Influenza A virus (A/Aichi/2/1968(H3N2)).
In a further assay the test system is Influenza A virus. Nature of the assay: Inhibition of hemagglutinination in human influenza virus A/PR/8/34 (H1N1) infected in bovine erythrocytes. The conditions noted are these: A/Puerto Rico/8/1934(H1N1).
Assay [2] relates to Influenza A virus H3N2. The assay is described as follows: Inhibition of hemagglutinination in human influenza virus A/Memphis/1/71 (H3N2) infected in bovine erythrocytes. As to conditions: Influenza A virus (A/Memphis/1/1971(H3N2)).

Regarding `CC(=O)N[C@H]1[C@H]([C@H](O)[C@H](O)CO)O[C@@](O[C@H]2[C@@H](O)[C@@H](CO)O[C@H](O[C@H]3[C@H](O)[C@@H](O)[C@H](OCCCCCSCCCCCC(=O)NCCC[Si](CCCNC(=O)CCCCCSCCCCCO[C@@H]4O[C@H](CO)[C@@H](O[C@H]5O[C@H](CO)[C@H](O)[C@H](O[C@]6(C(=O)O)C[C@H](O)[C@@H](NC(C)=O)[C@H]([C@H](O)[C@H](O)CO)O6)[C@H]5O)[C@H](O)[C@H]4O)(CCCNC(=O)CCCCCSCCCCCO[C@@H]4O[C@H](CO)[C@@H](O[C@H]5O[C@H](CO)[C@H](O)[C@H](O[C@]6(C(=O)O)C[C@H](O)[C@@H](NC(C)=O)[C@H]([C@H](O)[C@H](O)CO)O6)[C@H]5O)[C@H](O)[C@H]4O)CCC[Si](C)(C)CCC[Si](CCCNC(=O)CCCCCSCCCCCO[C@@H]4O[C@H](CO)[C@@H](O[C@H]5O[C@H](CO)[C@H](O)[C@H](O[C@]6(C(=O)O)C[C@H](O)[C@@H](NC(C)=O)[C@H]([C@H](O)[C@H](O)CO)O6)[C@H]5O)[C@H](O)[C@H]4O)(CCCNC(=O)CCCCCSCCCCCO[C@@H]4O[C@H](CO)[C@@H](O[C@H]5O[C@H](CO)[C@H](O)[C@H](O[C@]6(C(=O)O)C[C@H](O)[C@@H](NC(C)=O)[C@H]([C@H](O)[C@H](O)CO)O6)[C@H]5O)[C@H](O)[C@H]4O)CCCNC(=O)CCCCCSCCCCCO[C@@H]4O[C@H](CO)[C@@H](O[C@H]5O[C@H](CO)[C@H](O)[C@H](O[C@]6(C(=O)O)C[C@H](O)[C@@H](NC(C)=O)[C@H]([C@H](O)[C@H](O)CO)O6)[C@H]5O)[C@H](O)[C@H]4O)O[C@@H]3CO)[C@@H]2O)(C(=O)O)C[C@@H]1O`, the outcome in the assay with Influenza A virus H3N2 [1], in the assay with Influenza A virus and with Influenza A virus H3N2 [2] was Active.

Take `CC(=O)N[C@H]1[C@H]([C@H](O)[C@H](O)CO)O[C@@](O[C@H]2[C@@H](O)[C@@H](CO)O[C@H](O[C@H]3[C@H](O)[C@@H](O)[C@H](OCCCCCSCCC[Si](CCCSCCCCCO[C@@H]4O[C@H](CO)[C@@H](O[C@H]5O[C@H](CO)[C@H](O)[C@H](O[C@]6(C(=O)O)C[C@H](O)[C@@H](NC(C)=O)[C@H]([C@H](O)[C@H](O)CO)O6)[C@H]5O)[C@H](O)[C@H]4O)(CCCSCCCCCO[C@@H]4O[C@H](CO)[C@@H](O[C@H]5O[C@H](CO)[C@H](O)[C@H](O[C@]6(C(=O)O)C[C@H](O)[C@@H](NC(C)=O)[C@H]([C@H](O)[C@H](O)CO)O6)[C@H]5O)[C@H](O)[C@H]4O)CCCSCCCCCO[C@@H]4O[C@H](CO)[C@@H](O[C@H]5O[C@H](CO)[C@H](O)[C@H](O[C@]6(C(=O)O)C[C@H](O)[C@@H](NC(C)=O)[C@H]([C@H](O)[C@H](O)CO)O6)[C@H]5O)[C@H](O)[C@H]4O)O[C@@H]3CO)[C@@H]2O)(C(=O)O)C[C@@H]1O`: the outcome in the assay with Influenza A virus H3N2 [1] and with Influenza A virus was Active.

Consider `CC(=O)N[C@H]1[C@H]([C@H](O)[C@H](O)CO)O[C@@](O[C@H]2[C@@H](O)[C@@H](CO)O[C@H](O[C@H]3[C@H](O)[C@@H](O)[C@H](OCCCCCSCCCCCC(=O)NCCC[Si](CCCNC(=O)CCCCCSCCCCCO[C@@H]4O[C@H](CO)[C@@H](O[C@H]5O[C@H](CO)[C@H](O)[C@H](O[C@]6(C(=O)O)C[C@H](O)[C@@H](NC(C)=O)[C@H]([C@H](O)[C@H](O)CO)O6)[C@H]5O)[C@H](O)[C@H]4O)(CCCNC(=O)CCCCCSCCCCCO[C@@H]4O[C@H](CO)[C@@H](O[C@H]5O[C@H](CO)[C@H](O)[C@H](O[C@]6(C(=O)O)C[C@H](O)[C@@H](NC(C)=O)[C@H]([C@H](O)[C@H](O)CO)O6)[C@H]5O)[C@H](O)[C@H]4O)CCCNC(=O)CCCCCSCCCCCO[C@@H]4O[C@H](CO)[C@@H](O[C@H]5O[C@H](CO)[C@H](O)[C@H](O[C@]6(C(=O)O)C[C@H](O)[C@@H](NC(C)=O)[C@H]([C@H](O)[C@H](O)CO)O6)[C@H]5O)[C@H](O)[C@H]4O)O[C@@H]3CO)[C@@H]2O)(C(=O)O)C[C@@H]1O`, for which the outcome in the assay on Influenza A virus H3N2 [1] and in the assay on Influenza A virus was Active.

For `C=CCCCO[C@@H]1O[C@H](CO)[C@@H](O[C@H]2O[C@H](CO)[C@H](O)[C@H](O[C@]3(C(=O)O)C[C@H](O)[C@@H](NC(C)=O)[C@H]([C@H](O)[C@H](O)CO)O3)[C@H]2O)[C@H](O)[C@H]1O`, the result with Influenza A virus H3N2 [1] and in the assay with Influenza A virus was Active.

As to `CC(=O)N[C@H]1[C@H]([C@H](O)[C@H](O)CO)O[C@@](O[C@H]2[C@@H](O)[C@@H](CO)O[C@H](O[C@H]3[C@H](O)[C@@H](O)[C@H](OCCCCCSCCC[Si](CCCSCCCCCO[C@@H]4O[C@H](CO)[C@@H](O[C@H]5O[C@H](CO)[C@H](O)[C@H](O[C@]6(C(=O)O)C[C@H](O)[C@@H](NC(C)=O)[C@H]([C@H](O)[C@H](O)CO)O6)[C@H]5O)[C@H](O)[C@H]4O)(CCCSCCCCCO[C@@H]4O[C@H](CO)[C@@H](O[C@H]5O[C@H](CO)[C@H](O)[C@H](O[C@]6(C(=O)O)C[C@H](O)[C@@H](NC(C)=O)[C@H]([C@H](O)[C@H](O)CO)O6)[C@H]5O)[C@H](O)[C@H]4O)c4ccccc4)O[C@@H]3CO)[C@@H]2O)(C(=O)O)C[C@@H]1O`, the result in the assay on Influenza A virus H3N2 [1] and in the assay with Influenza A virus was Active.

With `CC(=O)N[C@H]1[C@H]([C@H](O)[C@H](O)CO)O[C@@](O[C@H]2[C@@H](O)[C@@H](CO)O[C@H](O[C@H]3[C@H](O)[C@@H](O)[C@H](OCCCCCSCCCCCC(=O)NCCC[Si](CCCNC(=O)CCCCCSCCCCCO[C@@H]4O[C@H](CO)[C@@H](O[C@H]5O[C@H](CO)[C@H](O)[C@H](O[C@]6(C(=O)O)C[C@H](O)[C@@H](NC(C)=O)[C@H]([C@H](O)[C@H](O)CO)O6)[C@H]5O)[C@H](O)[C@H]4O)(CCCNC(=O)CCCCCSCCCCCO[C@@H]4O[C@H](CO)[C@@H](O[C@H]5O[C@H](CO)[C@H](O)[C@H](O[C@]6(C(=O)O)C[C@H](O)[C@@H](NC(C)=O)[C@H]([C@H](O)[C@H](O)CO)O6)[C@H]5O)[C@H](O)[C@H]4O)c4ccccc4)O[C@@H]3CO)[C@@H]2O)(C(=O)O)C[C@@H]1O`, the result in the assay with Influenza A virus H3N2 [1] and with Influenza A virus was Active.

Consider `CC(=O)N[C@H]1[C@H]([C@H](O)[C@H](O)CO)O[C@@](O[C@H]2[C@@H](O)[C@@H](CO)O[C@H](O[C@H]3[C@H](O)[C@@H](O)[C@H](OCCCCCSCCC[Si](CCCSCCCCCO[C@@H]4O[C@H](CO)[C@@H](O[C@H]5O[C@H](CO)[C@H](O)[C@H](O[C@]6(C(=O)O)C[C@H](O)[C@@H](NC(C)=O)[C@H]([C@H](O)[C@H](O)CO)O6)[C@H]5O)[C@H](O)[C@H]4O)(CCCSCCCCCO[C@@H]4O[C@H](CO)[C@@H](O[C@H]5O[C@H](CO)[C@H](O)[C@H](O[C@]6(C(=O)O)C[C@H](O)[C@@H](NC(C)=O)[C@H]([C@H](O)[C@H](O)CO)O6)[C@H]5O)[C@H](O)[C@H]4O)CCC[Si](C)(C)CCC[Si](CCCSCCCCCO[C@@H]4O[C@H](CO)[C@@H](O[C@H]5O[C@H](CO)[C@H](O)[C@H](O[C@]6(C(=O)O)C[C@H](O)[C@@H](NC(C)=O)[C@H]([C@H](O)[C@H](O)CO)O6)[C@H]5O)[C@H](O)[C@H]4O)(CCCSCCCCCO[C@@H]4O[C@H](CO)[C@@H](O[C@H]5O[C@H](CO)[C@H](O)[C@H](O[C@]6(C(=O)O)C[C@H](O)[C@@H](NC(C)=O)[C@H]([C@H](O)[C@H](O)CO)O6)[C@H]5O)[C@H](O)[C@H]4O)CCCSCCCCCO[C@@H]4O[C@H](CO)[C@@H](O[C@H]5O[C@H](CO)[C@H](O)[C@H](O[C@]6(C(=O)O)C[C@H](O)[C@@H](NC(C)=O)[C@H]([C@H](O)[C@H](O)CO)O6)[C@H]5O)[C@H](O)[C@H]4O)O[C@@H]3CO)[C@@H]2O)(C(=O)O)C[C@@H]1O`, for which the outcome in the assay with Influenza A virus H3N2 [1] and in the assay with Influenza A virus was Active.
